# From patent US20210379046A1, “Methods of Treating Diseases Using Kinase Modulators” (Memorial Sloan Kettering Cancer Center, priority 2018, published 2021)
# Values joined by “and” are separate entries in the source; they are usually repeats but may differ in a detail not shown here. Equal values may be shown once. “Also recorded” adds a separate entry of the source.
# How the values were obtained:
# TPC1 cells [1] = assay: ADCC chromium-51 release assay with ESK1 and human PBMCs on inhibitor-pretreated TPC1 cells; format: cell-based
# Method: Peripheral blood mononuclear cells were derived from healthy donors by Ficoll density centrifugation after receiving informed consent on Memorial Sloan Kettering Institutional Review board-approved protocols. TPC1 cells treated with RET inhibitor drugs and DMSO control were labeled with chromium-51 and co-cultured with PBMCs and ESK (or its isotype control, hIgG1). Different E:T ratios were used and after 5 hrs of incubation at 37° C., the supernatant was harvested and chromium levels were measured by Chromium-51 release assay (Perkin Elmer). Higher chromium levels indicated higher levels of cytotoxicity.
# After the addition of ESK and peripheral blood mononuclear cells for 5 hrs, chromium release was measured.
# For each experiment reported, fresh peripheral blood mononuclear cells were derived from a healthy donor by Ficoll density centrifugation after receiving informed consent on Memorial Sloan Kettering Institutional Review Board-approved protocols. […] Cells were then labeled with 1 uCi/well chromium-51 for 1 hr at 37° C. […] Different effector:target ratios were used and after 5 hrs of incubation at 37° C., the supernatant was harvested and chromium levels were measured through standard chromium-51 release assay on a Top Count machine (Perkin Elmer).
# TPC1 cells [2] = assay: Flow cytometry of cell surface HLA and checkpoint ligands on TPC1 cells; format: cell-based, human
# Method: (§1) If adherent cells, they were seeded one day before treatment.
# TPC1 tumors = assay: TPC1 subcutaneous tumors in NRG mice, tumor HLA and PD-L1 by flow cytometry; format: in vivo; settings: 7 days
# Method: Female NSG (NOD.Cg-Prkdc^scidIl2rg^tm1Wj1/SzJ) and NRG (NOD.Cg-Rag1^tm1MomIl2rg^tm1Wj1/SzJ) mice were purchased from the Jackson Laboratory or MSKCC breeding facility at 5-10 weeks old. For RET and ALK experiments, 2.5-6×10^6 tumor cells were subcutaneously injected into the flank of mice and when tumors were palpable, mice were treated daily with drug or vehicles through oral gavage. At day 7, tumors were harvested and flow cytometry was run to determine effect of inhibitors on HLA and PD-L1 on the tumor cells.
# To determine if the inhibitors produced similar therapeutic improvements in vivo, mice bearing the TPC1 tumor were treated with RET inhibitors. The highly immunodeficient NRG (NOD-Rag1null IL2rgnull) mice were subcutaneously injected with 2.5×10^6 luciferase tagged TPC1 cells in their right flank. […] Afterwards, cells were immediately harvested and stained with antibodies against HLA-A*02:01 and HLA-ABC.
# All animal experiments were conducted in accordance with and the approval of the MSKCC IACUC (Institutional Animal Care and Use Committee) protocols. Female NSG (NOD. Cg-Prkdc^scidIl2rg^tm1Wj1/SzJ) and NRG (NOD.Cg-Rag1^tm1MomIl2rg^tm1Wj1/SzJ) mice were purchased from the Jackson Laboratory at 5-10 weeks old. For experiments in vivo with RET and ALK, 2.5-6×10^6 tumor cells in PBS were subcutaneously injected into the flank of mice. […]
# TT cells = assay: Flow cytometry of cell surface HLA on TT cells; format: cell-based, human; settings: 72 hrs
# Method: as §1
# [3] = system: pSTAT3, pSTAT1 in TPC1 cells; assay: Western blot of STAT phosphorylation in TPC1 cells; format: cell-based, human; settings: TPC1, 10 nM AST487, 24 hrs
# Method: Cells were seeded in a 60 mm dish or 6 well plates. After the appropriate time point, cells were harvested and lysed and protein was quantified by a Lowry assay (Bio-Rad DC Protein Assay; #5000116). Protein levels were normalized and run on SDS PAGE gels (Bio-Rad). Protein was transferred to a nitrocellulose membrane using semi-dry transfer. Membrane was blocked and incubated with respective antibodies. When needed, secondary antibodies with HRP were incubated for 1 hr. Enhanced chemiluminescent substrate for HRP enzymes was used to image protein levels (Thermo-Fischer; #34095).
# Cells were seeded in a 60 mm dish or 6 well plates. After the appropriate time point, cells were harvested, lysed in RIPA buffer (Thermo Instruments) and protein concentration was quantified by a Lowry assay (using the Bio-Rad DC Protein Assay; #5000116 on a Spectramax device from Molecular Devices). Protein loading levels were equalized per lane and separated on SDS gels (Bio-Rad). Protein was transferred to a nitrocellulose membrance using semi-dry transfer (BioRad). Membranes were blocked with Omniblock (American Bio) and incubated with respected antibodies. When needed, secondary antibodies with HRP were incubated for 1 hr. Enhanced chemiluminescent substrate for HRP enzymes was used to image protein levels (Thermo-Fischer; #34095) on a ChemiDoc MP imager with Soft Max Pro software (Biorad).
compound,measurement,setting,value
CCN1CCN(Cc2ccc(NC(=O)Nc3ccc(Oc4cc(NC)ncn4)cc3)cc2C(F)(F)F)CC1 [AST487],ADCC activity of ESK1 against pretreated TPC1 cells,TPC1 cells [1]; TPC1 pre-incubated with RET inhibitor,improved antibody-dependent cellular cytotoxicity (ADCC) activity; also recorded: increased in vitro ADCC cytotoxicity
same,specific lysis,"TPC1 cells [1]; TPC1 pretreated 72 hrs with 10 nM AST487, ESK and PBMCs 5 hrs, 50:1 E:T",20%
same,HLA levels increase without STAT3 knockdown,"TPC1 cells [2]; TPC1, 10 nM AST487, 72 hrs",3 fold
same,"increase in surface HLA-A,B,C levels","TPC1 cells [2]; TPC1, 72 hours",3- to 4 fold and 3 to 4 fold
same,surface HLA-A*02:01,"TPC1 cells [2]; TPC1, 72 hrs",dose dependent increase in surface HLA-A*02
same,"surface HLA-A,B,C","TPC1 cells [2]; TPC1, 72 hrs","Surface HLA-A,B,C increase"
same,surface HLA-E levels,"TPC1 cells [2]; TPC1, 72 hrs",did not change
same,"HLA upregulation, AST487 compared with trametinib at the same concentrations","TPC1 cells [2]; TPC1, 72 hrs, normalized to DMSO",more potent and increased HLA levels at lower doses of drug; also recorded: higher levels of HLA upregulation
same,HLA-A02 (BB7-FITC) surface level,"TPC1 cells [2]; TPC1, AST 487 10 nM, 72 hours",led to upregulation of HLA
same,HLA levels increase after siSTAT3 pretreatment,"TPC1 cells [2]; TPC1, siSTAT3 24 hrs before 10 nM AST487, 72 hrs, HLA-A*02",~6 folds
same,"increase in surface HLA, control group (pBabe)","TPC1 cells [2]; TPC1 pBabe, 72 hours",~3 fold
same,"increase in surface HLA, BRAF V600E cells",TPC1 cells [2]; TPC1 with introduced BRAF V600E mutation,about 2 fold
same,"tumor cell surface HLA-A*02 and HLA-A,B,C in vivo",TPC1 tumors; 10 or 35 mg/kg once daily oral gavage,Dose related increase in HLA levels; also recorded: Dose-related increases in all HLA class I levels; also recorded: increased in a dose related manner
same,tumor PD-L1 levels in vivo,TPC1 tumors; oral gavage,no increase in PD-L1 was seen; also recorded: PD-L1 levels did not change in vivo
same,surface HLA,TT cells,increased in a AST487 dose-related manner; also recorded: increases in surface HLA
same,STAT3 phosphorylation,[3],increased significantly; also recorded: increased phosphorylation of STAT3 at 24 hrs
